What was measured:
[1] = system: Neutrophil elastase activity in U937 cells; experiment: Neutrophil elastase activity in U937 cytosolic lysate after incubation with test compound; type: cell-based; conditions: Homo sapiens, U-937, U937 cells incubated 48 hours with compound, read-out: Reduction of NE-activity in U937 cells IC50
Procedure: Determination of Neutrophil Elastase Activity in U937 Cytosolic Lysate Preparation after Incubation with Test Compound
Optiplate 384F were purchased from PerkinElmer (Prod. No. #6007270). 24well Nunclon cell culture plates (No. 142475) and 96well plates (No. 267245) were from Nunc. Dimethylsulfoxid (DMSO) was from Sigma (Prod. No. D8418). Nonidet-P40 (NP40) was from USBiological (Prod. No. N3500)
Substrate, specific for Neutrophil elastase, was from Bachem (MeOSuc-Ala-Ala-Pro-Val-AMC; Prod. No. I-1270).
Human neutrophil elastase was from Calbiochem (Prod. No. 324681)
Tris-buffer (100 mM Tris; 1M NaCL; pH 7.5)
Tris-buffer+HSA 0.1%; Human Serum Albumin from Calbiochem (Cat#. 126658)
Serine-protease buffer (20 mM Tris; 100 mM NaCL; pH 7.5)+0.1% HSA
Serine protease lysis buffer: 20 mM Tris-HCL; 100 mM NaCl pH 7.5; +0.2% Nonidet-P40;
PBS: phosphate buffered saline, without Ca and Mg, from Gibco
U937 from ECACC (Cat. No. 85011440) cultured in suspension at 37° C. and 5% CO2.
Cell density: 0.2-1 Mio. Cells/ml.
Medium: RPMI1640 GlutaMAX (No. 61870) with 10% FCS from Gibco
Cell Seeding and Treatment:
Compounds in 100% DMSO were diluted in Medium (—FCS) with 10% DMSO and further diluted according to the experiment planned.
20 μl of the compound solution was transferred in the respective wells of the 24 well plate and diluted with 2 ml cell suspension/well containing […] (final concentration of DMSO=0.1%). Compound dilution factor=100
Compounds (up to 7 concentrations) were tested in triplicates with 3 wells for the DMSO 0.1% control, incubatet for 48 hours without medium change at 37° C., 5% CO2 and 95% relative humidity.
Cell Harvesting and Cell Lysate:
Transfer the cell suspension in 2.2 ml Eppendorf cups. Separate cells from medium by centrifugation (400×g; 5 min; RT); discard the supernatant. Resuspend in 1 ml PBS; centrifugation (400×g; 5 min; RT); wash cells twice with PBS. Add 100 μl Serin lysis buffer (ice cold) to the cell pellet; resuspend the pellet and store on ice for 15 minutes. Remove debris by centrifugation at 15000×g for 10 min at 4° C. Transfer 80-100 μl lysate supernatant in 96well plate and store immediately at −80° C.
Neutrophil Elastase Activity Assay:
Frozen lysates were thawn at 37° C. for 10 minutes and stored on ice. Protein content was determined with Bradford protein assay. Lysates were diluted to 0.2-0.5 mg/ml protein in serine protease buffer+HSA.
Standard: NE ([…] stocksolution in Tris-buffer; stored at −80° C.) was diluted in Tris-buffer+HSA to 750 ng/ml, and further serially diluted 1:2 for the standard curve.
Buffer, blank, standard and lysate samples were transferred into 384 well plate
Blank: 5 μl Tris-buffer+10 μl Tris-buffer+HSA+5 μl Substrate
Standard: 5 μl Tris-buffer+10 μl NE (diff.conc.)+5 μl Substrate
Lysate: 5 μl Tris-buffer+10 μl Lysat+5 μl Substrate
The increase in fluorescence (Ex360 nm/Em 460 nm) is determined over 30 minutes with a Molecular Device Spectramax M5 Fluorescence Reader. Kinetic Reduction (Vmax units/sec); 4 vmax points. The amount of neutrophil elastase (ng/ml) is calculated using the standard curve and the Spectramax software. The result is interpolated to ng/mg lysate protein using excel formula functions. Percent inhibition in the compound-treated lysate samples is calculated relative to the DMSO-treated control-sample (100−(compound-sample*100)/control-sample)
IC50 is calculated using Graphpad Prism; nonlinear fitting (log(inhibitor) vs. response—Variable slope).

[2] = Metabolic stability with human liver microsomes; type: in vitro ADME; conditions: pH 7.6; pooled human liver microsomes, 37° C., 1 μM test compound, 1 mg/ml protein, NADPH; read-out: In vitro stability in human liver microsome incubations t½
Procedure: Determination of Metabolic Stability with Human Liver Microsomes
The metabolic degradation of the test compound is assayed at 37° C. with pooled human liver microsomes. The final incubation volume of 100 μl per time point contains TRIS buffer pH 7.6 (0.1 M), magnesium chloride (5 mM), microsomal protein (1 mg/ml) and the test compound at a final concentration of 1 μM. Following a short preincubation period at 37° C., the reactions are initiated by addition of beta-nicotinamide adenine dinucleotide phosphate, reduced form (NADPH, 1 mM) and terminated by transferring an aliquot into acetonitrile after different time points. Additionally, the NADPH-independent degradation is monitored in incubations without NADPH, terminated at the last time point. The [%] remaining test compound after NADPH independent incubation is reflected by the parameter c(control) (metabolic stability). The quenched incubations are pelleted by centrifugation (10,000 g, 5 min). An aliquot of the supernatant is assayed by LC-MS/MS for the amount of parent compound.
The half-life (t½ INVITRO) is determined by the slope of the semilogarithmic plot of the concentration-time profile. The intrinsic clearance (CL_[…]) is calculated by considering the amount of protein in the incubation: CL_[…][μl/min/mg protein]=(ln 2/(half-life[min]*protein content[mg/ml]))*1,000.

| IC50 [1] [nM] | half-life at 1 μM [2] [h] | SMILES |
| --- | --- | --- |
| 48 | > 2.17 | CS(=O)(=O)c1ccc(-c2ccc(C[C@@H](C#N)NC(=O)C34CCC(CC3)CN4)c(F)c2)cc1 [Example 21, N-[(1S)-1-cyano-2-[2-fluoro-4-(4-methanesulfonylphenyl)phenyl]ethyl]-2-azabicyclo[2.2.2]octane-1-carboxamide] |
| 13 | > 2.17 | COCCN1C(=O)Cc2ccc(-c3ccc(C[C@@H](C#N)NC(=O)C45CCC(CC4)CN5)c(F)c3)cc21 [Example 26] |
| 7 | > 2.17 | N#C[C@H](Cc1ccc(-c2ccc3c(c2)CCNC3=O)cc1F)NC(=O)C12CCC(CC1)CN2 [Example 22] |
| 86 | > 2.17 | CN1Cc2cc(-c3ccc(C[C@@H](C#N)NC(=O)C45CCC(CC4)CN5)cc3)ccc2C1=O [Example 4] |
| 73 | > 2.17 | N#C[C@H](Cc1ccc(-c2csc(C(N)=O)c2)cc1F)NC(=O)C12CCC(CC1)CN2 [Example 31] |
| 27 | > 2.17 | CN1C(=O)Cc2ccc(-c3ccc(C[C@@H](C#N)NC(=O)C45CCC(CC4)CN5)cc3)cc21 [Example 2] |
| 13 | > 2.17 | CN1C(=O)Cc2ccc(-c3ccc(C[C@@H](C#N)NC(=O)C45CCC(CC4)CN5)c(F)c3)cc21 [Example 28] |
| 33 | > 2.17 | N#C[C@H](Cc1ccc(-c2ccc3c(c2)NC(=O)C3)cc1F)NC(=O)C12CCC(CC1)CN2 [Example 23] |
| 7 | > 2.17 | CC1(C)OC(=O)c2ccc(-c3ccc(C[C@@H](C#N)NC(=O)C45CCC(CC4)CN5)c(F)c3)cc21 [Example 27] |

Source: US8889708B2 (Boehringer Ingelheim International GmbH, priority 2013, dated 2014)
